Consider 19 molecules from paper PMC10885153, “Membrane Permeability in a Large Macrocyclic Peptide Driven by a Saddle-Shaped Conformation” (Journal of the American Chemical Society, 2024).

SMILES strings stand for the structures. Positions of bridges follow the written chain, without caps; N, C: chain ends. Non-standard residues stand in square brackets, D forms with d. Residues, ends and D or L forms follow the SMILES beside them. Cha = N[C@@H](CC1CCCCC1)C(=O)O; NMeC = CN[C@@H](CS)C(=O)O; NMeA = CN[C@@H](C)C(=O)O; dAbu = CC[C@@H](N)C(=O)O; dNMeA = CN[C@H](C)C(=O)O; Nva = CCC[C@H](N)C(=O)O; Abu = CC[C@H](N)C(=O)O; Nleu = CC(C)CNCC(=O)O; NPrGly = CCCNCC(=O)O; NEtG = CCNCC(=O)O

Test in the first data set: not given
Settings: not given
Regarding `CCOC(=O)[C@@H]1CSCC(=O)N[C@H](CC)C(=O)N(C)[C@@H](C)C(=O)N[C@H](CC(C)C)C(=O)N2CCC[C@@H]2C(=O)N(CC)CC(=O)N[C@@H](CC(C)C)C(=O)N(C)[C@@H](C)C(=O)N[C@@H](CC(C)C)C(=O)N1C` [JF206_ADD_DDLL_Ethyl] ({CH2CO}-[dAbu][NMeA][dL][dP][NEtG]L[NMeA]L[NMeC]-OEt; thioether N-9), the “PAMPA Pe_avg” value came out at 0 ×10⁻⁶ cm/s.
Same read-out and setting: under `CCOC(=O)[C@@H]1CSCC(=O)N[C@H](CC)C(=O)N(C)[C@@H](C)C(=O)N[C@@H](CC(C)C)C(=O)N2CCC[C@@H]2C(=O)N(CC)CC(=O)N[C@H](CC(C)C)C(=O)N(C)[C@H](C)C(=O)N[C@@H](CC(C)C)C(=O)N1C` [JF206_ADD_DLDD_Ethyl] ({CH2CO}-[dAbu][NMeA]L[dP][NEtG][dL][dNMeA]L[NMeC]-OEt; thioether N-9) stands 0 ×10⁻⁶ cm/s; under `CCOC(=O)[C@@H]1CSCC(=O)N[C@@H](CC)C(=O)N(C)[C@@H](C)C(=O)N[C@H](CC(C)C)C(=O)N2CCC[C@@H]2C(=O)N(CC)CC(=O)N[C@@H](CC(C)C)C(=O)N(C)[C@H](C)C(=O)N[C@@H](CC(C)C)C(=O)N1C` [JF206_ADL_LDLD_Ethyl] ({CH2CO}-[Abu][NMeA][dL][dP][NEtG]L[dNMeA]L[NMeC]-OEt; thioether N-9), 0 ×10⁻⁶ cm/s; under `CCOC(=O)[C@@H]1CSCC(=O)N[C@H](CC)C(=O)N(C)[C@@H](C)C(=O)N[C@@H](CC(C)C)C(=O)N2CCC[C@H]2C(=O)N(CC)CC(=O)N[C@H](CC(C)C)C(=O)N(C)[C@H](C)C(=O)N[C@@H](CC(C)C)C(=O)N1C` [JF206_ALD_DLDD_Ethyl] ({CH2CO}-[dAbu][NMeA]LP[NEtG][dL][dNMeA]L[NMeC]-OEt; thioether N-9), 0 ×10⁻⁶ cm/s.

Staying with this data set, now noted: PAMPA, 10 µM, pH 7.4.
In the case of `CCC[C@@H]1NC(=O)[C@H](C)N(C)C(=O)[C@H](CC(C)C)NC(=O)CSC[C@@H](C(=O)OCC)N(C)C(=O)[C@H](CC(C)C)NC(=O)[C@H](C)N(C)C(=O)[C@H](CC)NC(=O)CN(CC)C(=O)[C@H]2CCCN2C1=O` [LA01, O=C(N(C)[C@H](C(OCC)=O)CSCC(N[C@H](C(N(C)[C@@H](C)C(N[C@@H](CCC)C(N1[C@H](CCC1)C(N(CC)CC(N[C@H]2CC)=O)=O)=O)=O)=O)CC(C)C)=O)[C@H](CC(C)C)NC([C@H](C)N(C)C2=O)=O] ({CH2CO}-L[NMeA][Nva][dP][NEtG][Abu][NMeA]L[NMeC]-OEt; thioether N-9), the “%R_avg” value is listed as 33.1%.
On the same count and under the same terms, under `CCC[C@@H]1NC(=O)[C@H](C)N(C)C(=O)[C@H](CC(C)C)NC(=O)CSC[C@@H](C(=O)OCC)N(C)C(=O)[C@H](CC(C)C)NC(=O)[C@H](C)N(C)C(=O)[C@H](CC)NC(=O)CN(CCC)C(=O)[C@H]2CCCN2C1=O` [LA03, O=C(N(C)[C@H](C(OCC)=O)CSCC(N[C@H](C(N(C)[C@@H](C)C(N[C@@H](CCC)C(N1[C@H](CCC1)C(N(CCC)CC(N[C@H]2CC)=O)=O)=O)=O)=O)CC(C)C)=O)[C@H](CC(C)C)NC([C@H](C)N(C)C2=O)=O] ({CH2CO}-L[NMeA][Nva][dP][NPrGly][Abu][NMeA]L[NMeC]-OEt; thioether N-9) stands 25.8%; under `CCC[C@@H]1NC(=O)[C@H](C)N(C)C(=O)[C@H](CC(C)C)NC(=O)CSC[C@@H](C(=O)OCC)N(C)C(=O)[C@H](CC(C)C)NC(=O)[C@H](C)N(C)C(=O)[C@H](CC(C)C)NC(=O)CN(CC)C(=O)[C@H]2CCCN2C1=O` [LA05, O=C(N(C)[C@H](C(OCC)=O)CSCC(N[C@H](C(N(C)[C@@H](C)C(N[C@@H](CCC)C(N1[C@H](CCC1)C(N(CC)CC(N[C@H]2CC(C)C)=O)=O)=O)=O)=O)CC(C)C)=O)[C@H](CC(C)C)NC([C@H](C)N(C)C2=O)=O] ({CH2CO}-L[NMeA][Nva][dP][NEtG]L[NMeA]L[NMeC]-OEt; thioether N-9), 12.8%.
Same read-out and setting: under `CCOC(=O)[C@@H]1CSCC(=O)N[C@@H](CC(C)C)C(=O)N(C)[C@@H](C)C(=O)N[C@@H](CC(C)C)C(=O)N2CCC[C@@H]2C(=O)N(CC)CC(=O)N[C@@H](CC(C)C)C(=O)N(C)[C@@H](C)C(=O)N[C@@H](CC(C)C)C(=O)N1C` [LA06, O=C(N(C)[C@H](C(OCC)=O)CSCC(N[C@H](C(N(C)[C@@H](C)C(N[C@@H](CC(C)C)C(N1[C@H](CCC1)C(N(CC)CC(N[C@H]2CC(C)C)=O)=O)=O)=O)=O)CC(C)C)=O)[C@H](CC(C)C)NC([C@H](C)N(C)C2=O)=O] ({CH2CO}-L[NMeA]L[dP][NEtG]L[NMeA]L[NMeC]-OEt; thioether N-9) stands 5.1%.
On to `CCOC(=O)[C@@H]1CSCC(=O)N[C@@H](CC(C)C)C(=O)N(C)[C@@H](C)C(=O)N[C@@H](CC(C)C)C(=O)N2CCC[C@@H]2C(=O)N(CC)CC(=O)N[C@@H](CC2CCCCC2)C(=O)N(C)[C@@H](C)C(=O)N[C@@H](CC(C)C)C(=O)N1C` [LA10, O=C(N(C)[C@H](C(OCC)=O)CSCC(N[C@H](C(N(C)[C@@H](C)C(N[C@@H](CC(C)C)C(N1[C@H](CCC1)C(N(CC)CC(N[C@H]2CC3CCCCC3)=O)=O)=O)=O)=O)CC(C)C)=O)[C@H](CC(C)C)NC([C@H](C)N(C)C2=O)=O] ({CH2CO}-L[NMeA]L[dP][NEtG][Cha][NMeA]L[NMeC]-OEt; thioether N-9), for which the “%R_avg” value stood at 13.0% and the Pe_avg was 0 ×10⁻⁶ cm/s.
As to `CCC[C@@H]1NC(=O)[C@H](C)N(C)C(=O)[C@H](CC(C)C)NC(=O)CSC[C@@H](C(=O)OCC)N(C)C(=O)[C@H](CC(C)C)NC(=O)[C@H](C)N(C)C(=O)[C@H](CC2CCCCC2)NC(=O)CN(CCC)C(=O)[C@H]2CCCN2C1=O` [LA11, O=C(N(C)[C@H](C(OCC)=O)CSCC(N[C@H](C(N(C)[C@@H](C)C(N[C@@H](CCC)C(N1[C@H](CCC1)C(N(CCC)CC(N[C@H]2CC3CCCCC3)=O)=O)=O)=O)=O)CC(C)C)=O)[C@H](CC(C)C)NC([C@H](C)N(C)C2=O)=O] ({CH2CO}-L[NMeA][Nva][dP][NPrGly][Cha][NMeA]L[NMeC]-OEt; thioether N-9), the “%R_avg” value turned out to be 6.5%.

A short description of another data set: in vitro. To be noted: PAMPA, pH 7.4, PAMPA Pe_avg. In general terms: The PAMPA barrier holds no transporters, so it reflects passive diffusion.
Regarding `CCOC(=O)[C@@H]1CSCC(=O)N[C@@H](CC)C(=O)N(C)[C@@H](C)C(=O)N[C@H](CC(C)C)C(=O)N2CCC[C@H]2C(=O)N(CC)CC(=O)N[C@@H](CC(C)C)C(=O)N(C)[C@H](C)C(=O)N[C@@H](CC(C)C)C(=O)N1C` [JF206_ALL_LDLD_Ethyl] ({CH2CO}-[Abu][NMeA][dL]P[NEtG]L[dNMeA]L[NMeC]-OEt; thioether N-9), the Papp at 10 µM stood at 0.012 ×10⁻⁶ cm/s.
Same read-out and setting: under `CCOC(=O)[C@@H]1CSCC(=O)N[C@@H](CC)C(=O)N(C)[C@@H](C)C(=O)N[C@H](CC(C)C)C(=O)N2CCC[C@H]2C(=O)N(CC)CC(=O)N[C@@H](CC(C)C)C(=O)N(C)[C@@H](C)C(=O)N[C@@H](CC(C)C)C(=O)N1C` [JF206_ALL_LDLL_Ethyl] ({CH2CO}-[Abu][NMeA][dL]P[NEtG]L[NMeA]L[NMeC]-OEt; thioether N-9) stands 0.015 ×10⁻⁶ cm/s.
Still for that read-out and setting: under `CCOC(=O)[C@@H]1CSCC(=O)N[C@@H](CC)C(=O)N(C)[C@@H](C)C(=O)N[C@@H](CC(C)C)C(=O)N2CCC[C@H]2C(=O)N(CC)CC(=O)N[C@H](CC(C)C)C(=O)N(C)[C@H](C)C(=O)N[C@@H](CC(C)C)C(=O)N1C` [JF206_ALL_LLDD_Ethyl] ({CH2CO}-[Abu][NMeA]LP[NEtG][dL][dNMeA]L[NMeC]-OEt; thioether N-9) stands 0.00468 ×10⁻⁶ cm/s.
Same read-out and setting: under `CCOC(=O)[C@@H]1CSCC(=O)N[C@@H](CC)C(=O)N(C)[C@@H](C)C(=O)N[C@@H](CC(C)C)C(=O)N2CCC[C@H]2C(=O)N(CC(C)C)CC(=O)N[C@H](CC(C)C)C(=O)N(C)[C@H](C)C(=O)N[C@@H](CC(C)C)C(=O)N1C` [JF206_ALL_LLDD_Isobutyl] ({CH2CO}-[Abu][NMeA]LP[Nleu][dL][dNMeA]L[NMeC]-OEt; thioether N-9) stands 0.182 ×10⁻⁶ cm/s.
As to `CCOC(=O)[C@@H]1CSCC(=O)N[C@@H](CC)C(=O)N(C)[C@@H](C)C(=O)N[C@@H](CC(C)C)C(=O)N2CCC[C@H]2C(=O)N(CC)CC(=O)N[C@H](CC(C)C)C(=O)N(C)[C@@H](C)C(=O)N[C@@H](CC(C)C)C(=O)N1C` [JF206_ALL_LLDL_Ethyl] ({CH2CO}-[Abu][NMeA]LP[NEtG][dL][NMeA]L[NMeC]-OEt; thioether N-9), the Papp at 10 µM was 0.003 ×10⁻⁶ cm/s.
Regarding `CCOC(=O)[C@@H]1CSCC(=O)N[C@@H](CC)C(=O)N(C)[C@@H](C)C(=O)N[C@@H](CC(C)C)C(=O)N2CCC[C@H]2C(=O)N(CC(C)C)CC(=O)N[C@H](CC(C)C)C(=O)N(C)[C@@H](C)C(=O)N[C@@H](CC(C)C)C(=O)N1C` [JF206_ALL_LLDL_Isobutyl] ({CH2CO}-[Abu][NMeA]LP[Nleu][dL][NMeA]L[NMeC]-OEt; thioether N-9), the Papp at 10 µM was determined as 0.093 ×10⁻⁶ cm/s.
Same read-out and setting: under `CCOC(=O)[C@@H]1CSCC(=O)N[C@@H](CC)C(=O)N(C)[C@@H](C)C(=O)N[C@@H](CC(C)C)C(=O)N2CCC[C@H]2C(=O)N(CC)CC(=O)N[C@@H](CC(C)C)C(=O)N(C)[C@H](C)C(=O)N[C@@H](CC(C)C)C(=O)N1C` [JF206_ALL_LLLD_Ethyl] ({CH2CO}-[Abu][NMeA]LP[NEtG]L[dNMeA]L[NMeC]-OEt; thioether N-9) stands 0.014 ×10⁻⁶ cm/s; under `CCOC(=O)[C@@H]1CSCC(=O)N[C@@H](CC)C(=O)N(C)[C@@H](C)C(=O)N[C@@H](CC(C)C)C(=O)N2CCC[C@H]2C(=O)N(CC(C)C)CC(=O)N[C@@H](CC(C)C)C(=O)N(C)[C@H](C)C(=O)N[C@@H](CC(C)C)C(=O)N1C` [JF206_ALL_LLLD_Isobutyl] ({CH2CO}-[Abu][NMeA]LP[Nleu]L[dNMeA]L[NMeC]-OEt; thioether N-9), 0.139 ×10⁻⁶ cm/s; under `CCOC(=O)[C@@H]1CSCC(=O)N[C@@H](CC)C(=O)N(C)[C@@H](C)C(=O)N[C@@H](CC(C)C)C(=O)N2CCC[C@H]2C(=O)N(CC)CC(=O)N[C@@H](CC(C)C)C(=O)N(C)[C@@H](C)C(=O)N[C@@H](CC(C)C)C(=O)N1C` [JF206_ALL_LLLL_Ethyl] ({CH2CO}-[Abu][NMeA]LP[NEtG]L[NMeA]L[NMeC]-OEt; thioether N-9), 0.678 ×10⁻⁶ cm/s.

As a reminder, the Papp is a coefficient for how fast a substance crosses the barrier.
